Data from patent US6274616A, “N,N-diethylglycolamido ester prodrugs of indole sPLA2 inhibitors” (Eli Lilly and Company, priority 2000, dated 2001).

Assays:
[1] = target: recombinant human secreted phospholipase A2; conditions: cited from earlier work
[2] = target: recombinant human secreted phospholipase A2; conditions: guinea pig lung tissue; data from U.S. Pat. No. 5,654,326; read-out: Tissue test secreted PLA2 Apparent KB; cited from earlier work
[3] = Assay III: Rat Plasma Pharmacokinetics Study (oral bioavailability); type: in vivo, Rat (Fischer 344)
Experimental: The bioavailability of the compound of the invention, ((3-(2-amino-1,2-dioxoethyl)-1-((1,1'-biphenyl)-3-ylmethyl)-2-methyl-1H-indol-4-yl)oxy)acetic acid N,N-diethylglycolamido ester, was determined using a Rat Plasma Pharmacokinetics Study:
The purpose of this assay was to evaluate and compare the oral delivery for selected sPLA2 inhibitors.
The amount of sPLA2 inhibitor was corrected for free acid equivalents.
Suspension of sPLA2 inhibitor in 10% Acacia, prepared just prior to dose administration
Dose: 10 mg/kg (of the parent acid)
Blood samples (0.8 ml) were obtained at the following times: 0.5, 1, 2, 4, 8 and 24 hours (2 rats/timepoint)
Plasma was assayed by HPLC to measure concentrations of the different sPLA2 inhibitors (as free acids).
Cmax (maximal plasma concentrations), and AUC values were determined from the mean plasma concentration-time profiles.

Cc1c(C(=O)C(N)=O)c2c(OCC(=O)O)cccc2n1Cc1cccc(-c2ccccc2)c1 [Compound of formula (II), ((3-(2-amino-1,2-dioxoethyl)-1-((1,1'-biphenyl)-3-ylmethyl)-2-methyl-1H-indol-4-yl)oxy)acetic acid]
IC50 ([1]; chromogenic assay, 3-4 tests, data from U.S. Pat. No. 5,654,326, read-out: Inhibition of human secreted PLA2 IC50 ± mean deviation (3-4 tests)): 4.33 ± 2.31 nM | inhibiting sPLA2 (conclusion in words) ([1]; conclusion of Assay 1, Table I): highly active in inhibiting sPLA2 | Kb [2]: 57 ± 11 nM

CCN(CC)C(=O)COC(=O)COc1cccc2c1c(C(=O)C(N)=O)c(C)n2Cc1cccc(-c2ccccc2)c1 [N,N-diethylglycolamido, ((3-(2-amino-1,2-dioxoethyl)-1-((1,1'-biphenyl)-3-ylmethyl)-2-methyl-1H-indol-4-yl)oxy)acetic acid N,N-diethylglycolamido ester]
oral bioavailability compared with other esters (in words) ([3]; conclusion from Table 3): unexpectedly more bioavailable than many other esters of the sPLA2 inhibitor | oral bioavailability compared with other esters (in words) ([3]; conclusion from Table 3, listed as compound of formula (I)): highly bioavailable upon oral administration compared to other common ester type prodrugs
